The values that follow come from paper PMC3584946, “Three-component synthesis of pyrano[2,3-d]-pyrimidine dione derivatives facilitated by sulfonic acid nanoporous silica (SBA-Pr-SO3H) and their docking and urease inhibitory activity” (DARU Journal of Pharmaceutical Sciences, 2013).

pIC50: −log10 of the molar value. Like-named read-outs stand apart in the source and are kept apart here.

By pIC50 is commonly meant the IC50 on a negative log10 scale, so that one unit is a factor of ten.

In the assay the target is Jack bean urease (Canavalia ensiformis, UniProt P07374). Nature of the assay: phenol red urease assay, […] nm. The class given is biochemical.
The mark [1] stands for this setting: 100 mM urea, 10 mM phosphate pH 7.0, 37°C, 30 min, read-out: IC50.

Chain of Jack bean urease (P07374 whole entry): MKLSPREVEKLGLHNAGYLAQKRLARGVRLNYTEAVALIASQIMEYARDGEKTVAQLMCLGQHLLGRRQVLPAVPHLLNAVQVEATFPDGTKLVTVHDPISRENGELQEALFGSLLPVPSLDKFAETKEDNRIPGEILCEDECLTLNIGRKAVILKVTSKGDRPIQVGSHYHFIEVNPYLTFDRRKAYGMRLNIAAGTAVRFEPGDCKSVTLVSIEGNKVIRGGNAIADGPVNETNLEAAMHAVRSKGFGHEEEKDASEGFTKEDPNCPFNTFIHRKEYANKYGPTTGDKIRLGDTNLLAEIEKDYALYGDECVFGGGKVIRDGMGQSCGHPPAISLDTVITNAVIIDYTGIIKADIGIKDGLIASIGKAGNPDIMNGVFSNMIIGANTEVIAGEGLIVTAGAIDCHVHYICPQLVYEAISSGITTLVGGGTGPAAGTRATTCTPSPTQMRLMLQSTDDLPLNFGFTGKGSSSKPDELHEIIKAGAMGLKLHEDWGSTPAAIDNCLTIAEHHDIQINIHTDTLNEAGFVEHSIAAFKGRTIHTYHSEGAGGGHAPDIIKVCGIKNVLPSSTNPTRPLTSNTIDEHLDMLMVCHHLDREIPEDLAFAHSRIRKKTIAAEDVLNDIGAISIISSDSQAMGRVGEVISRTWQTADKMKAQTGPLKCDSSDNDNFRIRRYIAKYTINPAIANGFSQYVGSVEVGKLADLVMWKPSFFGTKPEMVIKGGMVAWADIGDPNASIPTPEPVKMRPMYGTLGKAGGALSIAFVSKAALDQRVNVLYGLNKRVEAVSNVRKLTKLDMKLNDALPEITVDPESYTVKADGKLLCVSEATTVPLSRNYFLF

As to `N#CC1=C(N)Oc2[nH]c(=O)[nH]c(=O)c2C1c1c(Cl)cccc1Cl` (stereo not drawn) [4k, 7-Amino-6-cyano-5-(2,6-dichlorophenyl)-5H-pyrano[2,3-d]pyrimidinone], the pIC50 under setting [1] was 4.39. Regarding `Cc1cccc(C2C(C#N)=C(N)Oc3[nH]c(=O)[nH]c(=O)c32)c1` (stereo not drawn) [4f, 7-Amino-6-cyano-5-(3-methylphenyl)-5H-pyrano[2,3-d]pyrimidine-2,4(1H,3H)-diones], under setting [1], the pIC50 is 4.39. Consider `COc1cccc(C2C(C#N)=C(N)Oc3[nH]c(=O)[nH]c(=O)c32)c1` (stereo not drawn) [4h, 7-Amino-6-cyano-5-(3-methoxylphenyl)-5H-pyrano[2,3-d]pyrimidine-2,4(1H,3H)-diones], for which the pIC50 was 3.97.
